# Experimental data from patent US12564574B2, “Pharmaceutical composition for preventing or treating parkinson's disease, comprising 2-(4-(1-hydroxypropane-2-yl)phenyl)isoindoline-1-one compound” (YEP BIO CO. LTD., priority 2020, dated 2026).
# Key:
# PGC-1α promoter = PGC-1α promoter luciferase assay (compound screening) in SH-PGC-1α-Luc reporter cells; type: cell-based, human; conditions: SH-PGC-1α-Luc cells, comparison of 14 drugs
# Experimental: In order to prepare lentiviruses for preparation of stable reporter SH-SY5Y cells (SH-PGC-1α-Luc), 1-kb pGL3-PGC-1α promoter-luciferase was cloned to pGreenFire (System Biosciences), and a lentivirus construct was first prepared (provided by Akyosi Fukamizu from University of Tsukuba, Japan).
# HEK293T cells cultured in 15 cm dish were subjected to transfection with 32 μg of pGreenFire vector, 9 μg of VSVg envelope, 6.25 μg of Prev, and 12.5 μg of pMDL.
# After 48 hours, viral supernatants were collected and concentrated using ultracentrifugation, and viral pellets were dissolved with PBS. SH-SY5Y cells were treated with concentrated virus and screened with puromycin (1 μg/ml) a day later.
# SH-PGC-1α-Luc was dispensed in a white, flat-bottomed 96-well plate, where culture was performed to accommodate 10,000 cells in 100 μl of DMEM (10% FBS+penicillin/streptomycin (P/S)) per well, and the cells were stabilized in an incubator at 37° C. in the presence of 5% CO2 for 12 hours.
# The next day, each drug was added to 50 μl of warmed DMEM to the final concentration of 20 μM, then 50 μl of DMEM was removed from the cell-containing plate, and 50 μl of drug-containing DMEM was added (final concentration of 10 μM). Cells were then exposed to the drug for 48 hours, and luciferase activity was measured using SteadyGlo reagent (Promega). […]
# [1] = test system: PGC-1α protein in the SN of mice; assay: Immunoblot of PGC-1α protein in the substantia nigra (SN) of mice fed compound diet; type: in vivo; conditions: diet 0.5% w/w for 1 week
# Experimental: (§1) RIPA buffer was added to the SH-SY5Y cells and SN of C57L/6N mice, followed by homogenization with a homogenizer. Thereafter, the freezing and melting process was repeated three times, and quantification was performed using a BCA kit based on BSA to check the total amount of protein.
# (§2) Lysates were identified by adding 2× SDS sample buffer, heating at 95° C. for 10 minutes to perform immunoblot, and then treating the desired protein with antibody.
# (§3) In the immunoblot experiment, the darkness of the band was measured using the ImageJ (NIH, Bethesda, […], USA, http://rsb.info.nih.gov/ij/) program, and statistical analysis was performed using the darkness of the protein band in proportion to the loading control. The statistical analysis was performed using the GraphPad Prism version 7 (GraphPad Software) program. For the data, the unpaired two-tailed student's t-test was applied, wherein p<of 0.05 indicates statistical significance.
# In FIG. 7, an immunoblot is shown for protein derived from the SN of mice fed with Chow, YPD-02 (2-[4-(3-oxo-1H-isoindol-2-yl)phenyl]propanoic acid), or YPD-01 (2-(4-(1-hydroxypropan-2-yl)phenyl) isoindoline-1-one) diet (0.5% w/w) for 1 week (quantitative graph quantified with β-actin/data was expressed as mean±SEM/statistical significance was measured by applying the unpaired two-tailed student t-test. * p<0.05, ** p<0.01.).
# [2] = test system: dopamine neurons in substantia nigra of AAV-PARIS Parkinson's disease model mice; assay: Death of dopamine neurons in AAV-PARIS Parkinson's disease model mice (TH immunohistochemistry and immunoblot); type: in vivo; conditions: AAV-PARIS injected mice, diet 0.5% w/w for 4 weeks
# Description: (§4) To prepare Parkinson's disease model mice, AAV-PARIS was stereotaxically injected into the substantia nigra area. The mice were fed with Chow or YPD-01 (2-(4-(1-hydroxypropan-2-yl)phenyl) isoindoline-1-one) diet (0.5% w/w) for 4 weeks, and then the brain was collected and sectioned using a microtome. Dopaminergic neurons were visualized by carrying out a reaction in the mouse brain tissue sliced into 35 μm sections using TH antibody, a neuronal dopamine marker, then exposed to Vectastine ABC (Vector biolabs) and DAB (Sigma) solutions. Six […] were used in each experiment.
# 100 μl of pentobarbital (10 mg/ml) was injected into the abdomen of 8-week-old mice for anesthetization, mouse pericranium was peeled off, and then the left brain (X: 1.2, Y: −3.2, Z: −4.5) and right brain (X: 1.2, Y: 3.2, Z: −4.5) regions were marked based on the bregma. The marked portion was drilled, and the virus was injected slowly (30 seconds per 0.2 μl) through a syringe. After injecting the virus into the left brain, followed by a 2-minute standby, the same procedure was performed on the other side. After the surgical suture, the mice were carefully monitored, and breeding was followed in the cage until the recovery. […]
# [3] = test system: PGC-1α and main target genes (NRF-1, Tfam); assay: RT-qPCR of PGC-1α and its target genes (NRF-1, Tfam) in Parkinson's disease model mice; type: in vivo; conditions: substantia nigra of AAV-PARIS injected mice, diet for 4 weeks
# Description: as §4
# In the animal model experiment set up as in Example 5, whether the expression of PGC-1α and the main target genes (NRF-1, Tfam) of PGC-1α increases due to YPD-01 intake was measured by RT-qPCR method.
# The midbrain of mice into which AAV-PARIS was stereotaxically injected and which were fed with Chow or YPD-01 diet for 4 weeks was collected, and RNA was extracted using the total RNA extraction kit (Intron Biotechnology). cDNA was synthesized using the cDNA synthesis kit (Enzynomics) and oligo dT from the extracted RNA. Using primers and SYBR green (Qiagen) reagents for the gene to be analyzed, gene expression in Rotor gene Q (Qiagen) was quantified via qPCR.
# [4] = test system: Parkinson's disease model mice; assay: Pole test in AAV-PARIS Parkinson's disease model mice; type: in vivo; conditions: AAV-PARIS injected mice, YPD-01 diet 0.5% w/w
# Description: as §4
# In order to identify whether YPD-01 is effective in inhibiting the death of dopamine neurons and Parkinson's disease-like behavioral abnormality in the Parkinson's disease model, as shown in Example 5 above, a pole test, which is the most reliable behavioral experiment, was performed.
# To investigate behavioral abnormality, Parkinson's disease model mice were transferred to a pole test cage to have the mice adapted for 3 minutes, and then the mouse tails were held and placed on the tip of a vertically erected pole. The time from the moment the mouse took off its hind foot from the tip of the pole until the mouse came down to the floor was measured.
# [5] = test system: PGC-1α protein in SH-SY5Y cells; assay: Immunoblot of PGC-1α protein after treating SH-SY5Y cell line with compounds; type: cell-based, human; conditions: SH-SY5Y cell line, 0.01, 0.1, 1, 10 μM, 48 hours
# Experimental: To culture human neuroblasts SH-SY5Y cells (ATCC, Manassas, VA), 10% FBS (vol/vol, Welgene Gold Serum, cat #S 001-07) and DMEM (Welgene fresh media DMEM, cat #LM 001-05) including antibiotics were used, wherein the culture was performed in an incubator (Forma Direct Heat CO2 incubator, Thermo Scientific) at 37° C. in the presence of 5% carbon dioxide.
# as §1, §2, §3
# As shown in Example 3, an image of an immunoblot performed after treating the SH-SY5Y cell line with compounds (10 μM, 48 hours) is shown in FIG. 6.
SMILES,activity on PGC-1α promoter among the 14 drugs (FIG. 5) (PGC-1α promoter),passage through the BBB [1],protein level of PGC-1α in the SN (immunoblot) ([1]; quantified with β-actin),death of dopamine neurons (TH immunohistochemistry) [2],death of dopamine neurons (TH immunoblot in substantia nigra) ([2]; quantified with β-actin),PARIS-induced suppression of expression of NRF-1 (RT-qPCR) [3],PARIS-induced suppression of expression of PGC-1α (RT-qPCR) [3],PARIS-induced suppression of expression of Tfam (RT-qPCR) [3],symptoms of behavioral abnormality (time to come down from the top of the pole) [4],amount of PGC-1α protein (immunoblot) [5]
"CC(CO)c1ccc(N2Cc3ccccc3C2=O)cc1 (stereo not drawn) [YPD-01, 2-(4-(1-hydroxypropan-2-yl)phenyl) isoindoline-1-one]",highest,successfully passed through BBB,increased the protein level of PGC-1α,the death of dopamine neurons was meaningfully inhibited,the death of dopamine neurons by AAV-PARIS was inhibited,significantly recovered,significantly recovered,significantly recovered,disappeared,increased the amount of PGC-1α protein regardless of the concentration
"CC(C(=O)O)c1ccc(N2Cc3ccccc3C2=O)cc1 (stereo not drawn) [YPD-02, 2-[4-(3-oxo-1H-isoindol-2-yl)phenyl]propanoic acid, reference compound]",,,,,,,,,,increased the amount of PGC-1α protein in accordance with an increase in the drug concentration
"CC(C)OC(=O)C(C)c1ccc(N2Cc3ccccc3C2=O)cc1 (stereo not drawn) [YPD-03, isopropyl 2-(4-(1-oxoisoindolin-2-yl)phenyl) propanoate]",,,,,,,,,,increased the amount of PGC-1α protein in accordance with an increase in the drug concentration
